Source: paper doi:10.1101/2021.06.23.449549v1 (biorxiv, 2021)

T1: AtPQT11/CYP86A4 (Arabidopsis thaliana, UniProt Q9LMM1)
T1 sequence (Q9LMM1 1-554): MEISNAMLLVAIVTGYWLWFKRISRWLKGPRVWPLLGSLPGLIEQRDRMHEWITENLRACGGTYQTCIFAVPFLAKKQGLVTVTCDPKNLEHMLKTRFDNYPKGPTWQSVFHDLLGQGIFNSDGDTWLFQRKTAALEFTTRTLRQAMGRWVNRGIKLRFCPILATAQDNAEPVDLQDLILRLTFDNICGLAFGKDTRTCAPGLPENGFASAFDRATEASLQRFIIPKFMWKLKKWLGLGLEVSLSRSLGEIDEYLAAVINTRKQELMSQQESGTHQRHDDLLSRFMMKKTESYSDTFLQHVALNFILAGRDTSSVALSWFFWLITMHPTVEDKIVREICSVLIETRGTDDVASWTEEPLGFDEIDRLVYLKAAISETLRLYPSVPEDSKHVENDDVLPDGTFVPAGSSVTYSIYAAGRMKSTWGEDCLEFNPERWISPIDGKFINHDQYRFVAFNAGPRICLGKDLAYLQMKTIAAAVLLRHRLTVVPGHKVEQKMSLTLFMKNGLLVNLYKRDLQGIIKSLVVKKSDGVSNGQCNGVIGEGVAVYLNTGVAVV

B1: AtPQT11/CYP86A4 (Arabidopsis thaliana) (protein)
chain: T1 sequence (Q9LMM1 1-554)

What was measured:
AtPQT11/CYP86A4 = biological target: T1, AtPQT11/CYP86A4; assay type: biochemical; settings: 2 mM NADPH in excess; 25 mM phosphate pH 7.0; 27 °C; N-demethylation
purified protein = substrate: NC(=O)C1=CN([C@@H]2O[C@H](COP(=O)(O)OP(=O)(O)OC[C@H]3O[C@@H](n4cnc5c(N)ncnc54)[C@H](OP(=O)(O)O)[C@@H]3O)[C@@H](O)[C@H]2O)C=CC1; assay: purified protein; assay type: biochemical, Arabidopsis thaliana; settings: pH 7.0; 27.0 °C; varied: cofactor

Row | Molecule | Km (AtPQT11/CYP86A4) | Km (purified protein)
1 | C[n+]1ccc(-c2cc[n+](C)cc2)cc1 [paraquat, 1,1’-dimethyl-4,4’-bipyridynium dichloride] | 1.34 µM | 
2 | B1 |  | 1155 (±214.9) μM
